# Source: patent US20180177860A1, “VACCINE […] I[…] GREEN TEA EXTRACT, AND PREPARATION METHOD THEREFOR” (priority 2015, published 2018)
# How the values were obtained:
# [1] = 37% formaldehyde; cited from earlier work
# [2] = target: T1, influenza hemagglutinin protein (Influenza A virus, UniProt P03452); assay: LCMS/MS of hemagglutinin protein reacted with EGCG; settings: EGCG modified in the form of dihydro epigallocatechin (C15H11O6)
# T1 construct: host or cells: human cells
# Protocol: In addition, the hemagglutinin protein reacted with EGCG was analyzed through liquid chromatography mass spectrometry (LCMS/MS). The protein bands stained with Coomassie blue were separated by in-gel digestion, subjected to alkylation and de-staining processes, and then prepared into peptide fragments using trypsin. The prepared peptide fragments were analyzed using LCMS/MS [(Q-Exactive mass spectrometer (Thermo Fisher Scientific, Bremen, Germany) coupled with an Easy-nLC system (Thermo Fisher Scientific, Odense, Denmark)].
# T1 sequence (P03452 18-565): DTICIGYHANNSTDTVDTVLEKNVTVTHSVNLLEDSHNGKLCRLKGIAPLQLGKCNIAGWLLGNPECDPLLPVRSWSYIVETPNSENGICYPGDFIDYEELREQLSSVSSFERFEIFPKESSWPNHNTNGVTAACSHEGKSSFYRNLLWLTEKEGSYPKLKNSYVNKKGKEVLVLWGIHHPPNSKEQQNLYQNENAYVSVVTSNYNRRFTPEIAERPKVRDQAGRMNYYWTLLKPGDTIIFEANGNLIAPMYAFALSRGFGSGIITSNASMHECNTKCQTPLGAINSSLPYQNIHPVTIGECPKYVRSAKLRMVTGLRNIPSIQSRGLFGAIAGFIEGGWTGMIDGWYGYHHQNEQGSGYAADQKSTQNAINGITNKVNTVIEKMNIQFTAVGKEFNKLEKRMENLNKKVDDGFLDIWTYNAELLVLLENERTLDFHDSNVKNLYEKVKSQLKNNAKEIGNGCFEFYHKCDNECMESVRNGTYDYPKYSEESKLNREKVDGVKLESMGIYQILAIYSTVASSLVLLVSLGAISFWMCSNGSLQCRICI
Compound,amount that can lead to death in adults [1] [mL],binding site of EGCG on hemagglutinin (LCMS/MS) [2]
C=O [formaldehyde],30,
(−)-epigallocatechin gallate [EGCG],,"bound to the cysteine residue, which is the 152nd amino acid of the influenza hemagglutinin protein"
